Measured values from PubChem BioAssay (NCI).
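Results reflect a 48-hour exposure of cells in 96-well plates to compound at five concentrations. TGI denotes the concentration required for complete inhibition of growth.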

What was measured:
Assay in all cases: NCI-60 cell line screen, 48 h
[1] = system: CAKI-1 renal
[2] = system: MALME-3M melanoma
[3] = system: ACHN renal
[4] = system: IGROV1 ovarian
[5] = system: NCI-H460 lung
[6] = system: MDA-N
[7] = system: 786-0 renal
[8] = system: COLO 205 colon
[9] = system: HOP-92 NSCLC
[10] = system: SK-OV-3 ovarian
[11] = system: SN12C renal
[12] = system: HS 578T breast
[13] = system: SNB-75 CNS
[14] = system: CCRF-CEM leukemia
[15] = system: SF-539 CNS
[16] = system: OVCAR-5 ovarian
[17] = system: RPMI-8226 leukemia
[18] = system: SK-MEL-2 melanoma
[19] = system: OVCAR-8 ovarian
[20] = system: K-562 leukemia
[21] = system: TK-10 renal
[22] = system: SF-295 CNS
[23] = system: MDA-MB-435
[24] = system: MOLT-4 leukemia
[25] = system: HL-60(TB) leukemia
[26] = system: SNB-19 CNS
[27] = system: HOP-62 NSCLC
[28] = system: SK-MEL-28 melanoma
[29] = system: A549 NSCLC
[30] = system: PC-3 prostate
[31] = system: UO-31 renal
[32] = system: OVCAR-4 ovarian
[33] = system: BT-549 breast
[34] = system: NCI-H23 lung
[35] = system: MDA-MB-231 breast
[36] = system: HCT-15 colon
[37] = system: SR leukemia
[38] = system: NCI/ADR-RES ovarian
[39] = system: OVCAR-3 ovarian
[40] = system: HCC-2998 colon
[41] = system: KM12 colon
[42] = system: SW-620 colon
[43] = system: MCF7 breast
[44] = system: HT29 colon
[45] = system: HCT-116 colon
[46] = system: U251 CNS
[47] = system: UACC-62 melanoma
[48] = system: EKVX NSCLC
[49] = system: M14 melanoma
[50] = system: DU-145 prostate
[51] = system: NCI-H522 lung
[52] = system: SF-268 CNS
[53] = system: LOX IMVI melanoma
[54] = system: NCI-H226 lung
[55] = system: UACC-257 melanoma
[56] = system: A498 renal
[57] = system: SK-MEL-5 melanoma
[58] = system: RXF 393 renal

## CCOC(=O)N1CCN(c2ccc3ccc(N)nc3n2)CC1
[1]
  TGI: > 100 µM
[2]
  TGI: > 100 µM
[3]
  TGI: > 100 µM
[4]
  TGI: > 100 µM
[5]
  TGI: > 100 µM
[6]
  TGI: > 100 µM
[7]
  TGI: > 100 µM
[8]
  TGI: > 100 µM
[9]
  TGI: > 100 µM
[10]
  TGI: > 100 µM
[11]
  TGI: > 100 µM
[12]
  TGI: > 100 µM
[13]
  TGI: > 100 µM
[14]
  TGI: > 100 µM
[15]
  TGI: > 100 µM
[16]
  TGI: > 100 µM
[17]
  TGI: > 100 µM
[18]
  TGI: > 100 µM
[19]
  TGI: > 100 µM
[20]
  TGI: > 100 µM
[21]
  TGI: > 100 µM
[22]
  TGI: > 100 µM
[23]
  TGI: > 100 µM
[24]
  TGI: > 100 µM
[25]
  TGI: > 100 µM
[26]
  TGI: > 100 µM
[27]
  TGI: > 100 µM
[28]
  TGI: > 100 µM
[29]
  TGI: > 100 µM
[30]
  TGI: > 100 µM
[31]
  TGI: > 100 µM
[32]
  TGI: > 100 µM
[33]
  TGI: > 100 µM
[34]
  TGI: > 100 µM
[35]
  TGI: > 100 µM
[36]
  TGI: > 100 µM
[37]
  TGI: > 100 µM
[38]
  TGI: > 100 µM
[39]
  TGI: > 100 µM
[40]
  TGI: > 100 µM
[41]
  TGI: > 100 µM
[42]
  TGI: > 100 µM
[43]
  TGI: > 100 µM
[44]
  TGI: > 100 µM
[45]
  TGI: > 100 µM
[46]
  TGI: > 100 µM
[47]
  TGI: > 100 µM
[48]
  TGI: > 100 µM
[49]
  TGI: > 100 µM
[50]
  TGI: > 100 µM
[51]
  TGI: > 100 µM
[52]
  TGI: > 100 µM
[53]
  TGI: > 100 µM
[54]
  TGI: > 100 µM
[55]
  TGI: > 100 µM

## CCOP(=O)(OCC)/C(C#N)=C/c1coc2cc(C)cc(C)c2c1=O
[1]
  TGI: > 100 µM
[2]
  TGI: > 100 µM
[3]
  TGI: > 100 µM
[4]
  TGI: > 100 µM
[5]
  TGI: > 100 µM
[6]
  TGI: > 100 µM
[7]
  TGI: > 100 µM
[8]
  TGI: > 100 µM
[9]
  TGI: > 100 µM
[10]
  TGI: > 100 µM
[11]
  TGI: > 100 µM
[12]
  TGI: > 100 µM
[13]
  TGI: > 100 µM
[14]
  TGI: > 100 µM
[16]
  TGI: > 100 µM
[17]
  TGI: > 100 µM
[18]
  TGI: > 100 µM
[19]
  TGI: > 100 µM
[20]
  TGI: > 100 µM
[22]
  TGI: > 100 µM
[23]
  TGI: > 100 µM
[24]
  TGI: > 100 µM
[25]
  TGI: > 100 µM
[26]
  TGI: > 100 µM
[27]
  TGI: > 100 µM
[28]
  TGI: > 100 µM
[29]
  TGI: > 100 µM
[30]
  TGI: > 100 µM
[31]
  TGI: > 100 µM
[32]
  TGI: > 100 µM
[56]
  TGI: > 100 µM
[33]
  TGI: > 100 µM
[34]
  TGI: > 100 µM
[35]
  TGI: > 100 µM
[37]
  TGI: > 100 µM
[38]
  TGI: > 100 µM
[39]
  TGI: > 100 µM
[40]
  TGI: > 100 µM
[41]
  TGI: > 100 µM
[42]
  TGI: > 100 µM
[43]
  TGI: > 100 µM
[44]
  TGI: > 100 µM
[45]
  TGI: > 100 µM
[46]
  TGI: > 100 µM
[47]
  TGI: > 100 µM
[48]
  TGI: > 100 µM
[49]
  TGI: > 100 µM
[50]
  TGI: > 100 µM
[51]
  TGI: > 100 µM
[52]
  TGI: > 100 µM
[53]
  TGI: > 100 µM
[54]
  TGI: > 100 µM
[57]
  TGI: > 100 µM
[55]
  TGI: > 100 µM

## C/C(=N/NC(=S)N1CCCCC1)c1cccc(/C(C)=N\NC(=S)N2CCCCC2)n1
[1]
  TGI: 3.93 µM
[2]
  TGI: 4.58 µM
[3]
  TGI: 3.02 µM
[4]
  TGI: 4.45 µM
[5]
  TGI: 4.75 µM
[6]
  TGI: 3.17 µM
[7]
  TGI: 3.46 µM
[8]
  TGI: 10.1 µM
[58]
  TGI: 5.15 µM
[10]
  TGI: 3.56 µM
[11]
  TGI: 4.83 µM
[12]
  TGI: 6.57 µM
[13]
  TGI: 6.53 µM
[14]
  TGI: > 100 µM
[15]
  TGI: 3.9 µM
[16]
  TGI: 2.44 µM
[17]
  TGI: 6.84 µM
[18]
  TGI: 4.2 µM
[19]
  TGI: 3.19 µM
[20]
  TGI: 6.65 µM
[21]
  TGI: 3.69 µM
[22]
  TGI: 4.06 µM
[23]
  TGI: 3.62 µM
[24]
  TGI: 6.38 µM
[25]
  TGI: 5.66 µM
[26]
  TGI: 7.09 µM
[27]
  TGI: 15.9 µM
[28]
  TGI: 4.32 µM
[29]
  TGI: 7.29 µM
[30]
  TGI: 4.03 µM
[31]
  TGI: 2.78 µM
[56]
  TGI: 3.16 µM
[33]
  TGI: 3.4 µM
[34]
  TGI: > 100 µM
[35]
  TGI: 3.99 µM
[36]
  TGI: 4.25 µM
[37]
  TGI: 6.58 µM
[38]
  TGI: 4.72 µM
[39]
  TGI: 5.49 µM
[40]
  TGI: 4.01 µM
[41]
  TGI: 6.14 µM
[42]
  TGI: 10.6 µM
[43]
  TGI: 4.46 µM
[44]
  TGI: 7.22 µM
[45]
  TGI: 3.64 µM
[46]
  TGI: 4.45 µM
[47]
  TGI: 5.54 µM
[48]
  TGI: 5.79 µM
[50]
  TGI: 6.35 µM
[51]
  TGI: 4.34 µM
[52]
  TGI: 9.06 µM
[53]
  TGI: 5.4 µM
[54]
  TGI: 5.54 µM
[57]
  TGI: 3.54 µM
[55]
  TGI: 6.85 µM
